pIC50: −log10 of the molar value.
Assay: Inhibition of CCL3 induced chemotaxis in human T lymphocytes

Structure (SMILES)	pIC50
CN1CCN(C(=O)C(CCC(C)(C)F)C[C@H](O)[C@H](Cc2ccccc2)NC(=O)c2cnc3ccccc3n2)CC1 (stereo partly drawn) [Quinoxaline-2-carboxylic acid [(1S,2S)-1-benzyl-7-fluoro-2-hydroxy-7-methyl-4-(4-methyl-piperazine-1-carbonyl)-octyl]-amide]	5.15
NC(=O)C(C[C@H](O)[C@H](Cc1ccccc1)NC(=O)c1cnc2ccccc2n1)C1CCC(F)(F)CC1 (stereo partly drawn) [Quinoxaline-2-carboxylic acid [(1S,2S)-1-benzyl-4-carbamoyl-4-(4,4-difluoro-cyclohexyl)-2-hydroxy-butyl]-amide]	6.66
CCNC(=O)C(CCC(C)(C)F)C[C@H](O)[C@H](Cc1ccccc1)NC(=O)c1cnc2ccccc2n1 (stereo partly drawn) [Quinoxaline-2-carboxylic acid ((1S,2S)-1-benzyl-4-ethylcarbamoyl-7-fluoro-2-hydroxy-7-methyl-octyl)-amide]	6.89
CC(C)(F)CCC(C[C@H](O)[C@H](Cc1ccccc1)NC(=O)c1cnc2ccccc2n1)C(=O)NN (stereo partly drawn) [Quinoxaline-2-carboxylic acid ((1S,2S)-1-benzyl-7-fluoro-4-hydrazinocarbonyl-2-hydroxy-7-methyl-octyl)-amide]	9.00
NC(=O)C(C[C@H](O)[C@H](Cc1ccccc1)NC(=O)c1cnc2ccccc2n1)C1(O)CCC(F)(F)CC1 (stereo partly drawn) [Quinoxaline-2-carboxylic acid [(1S,2S)-1-benzyl-4-carbamoyl-4-(4,4-difluoro-1-hydroxy-cyclohexyl)-2-hydroxy-butyl]-amide]	7.17
CC(C)(F)CC[C@H](C[C@H](O)[C@H](Cc1ccccc1)NC(=O)c1cnc2ccccc2n1)C(N)=O [Quinoxaline-2-carboxylic acid ((1S,2S,4R)-1-benzyl-4-carbamoyl-7-fluoro-2-hydroxy-7-methyl-octyl)-amide]	7.89
CC(C)(F)CCC(C[C@H](O)[C@H](Cc1ccccc1)NC(=O)c1cnc2ccccc2n1)C(=O)NCc1ccccc1 (stereo partly drawn) [Quinoxaline-2-carboxylic acid ((1S,2S)-1-benzyl-4-benzylcarbamoyl-7-fluoro-2-hydroxy-7-methyl-octyl)-amide]	6.36
CC(C)(F)CCC(C[C@H](O)[C@H](Cc1ccccc1)NC(=O)c1cnc2ccccc2n1)C(=O)NO (stereo partly drawn) [Quinoxaline-2-carboxylic acid ((1S,2S)-1-benzyl-7-fluoro-2-hydroxy-4-hydroxycarbamoyl-7-methyl-octyl)-amide]	7.51
NC(=O)C(C[C@H](O)[C@H](Cc1ccccc1)NC(=O)c1cnc2ccccc2n1)C1CCCCC1 (stereo partly drawn) [Quinoxaline-2-carboxylic acid ((1S,2S)-1-benzyl-4-carbamoyl-4-cyclohexyl-2-hydroxy-butyl)-amide]	8.30
CC(C)CC[C@H](C[C@H](O)[C@H](Cc1ccccc1)NC(=O)c1cnc2ccccc2n1)C(N)=O [Quinoxaline-2-carboxylic acid ((1S,2S,4R)-1-benzyl-4-carbamoyl-2-hydroxy-7-methyl-octyl)-amide]	8.70
CC(C)(O)CC[C@H](C[C@H](O)[C@H](Cc1ccccc1)NC(=O)c1cnc2ccccc2n1)C(N)=O [Quinoxaline-2-carboxylic acid ((1S,2S,4R)-1-benzyl-4-carbamoyl-2,7-dihydroxy-7-methyl-octyl)-amide]	5.93
NC(=O)C(C[C@H](O)[C@H](Cc1ccccc1)NC(=O)c1cnc2ccccc2n1)C1(O)CCCCC1 (stereo partly drawn) [Quinoxaline-2-carboxylic acid [(1S,2S)-1-benzyl-4-carbamoyl-2-hydroxy-4-(1-hydroxy-cyclohexyl)-butyl]-amide]	6.92
NC(=O)C(C[C@H](O)[C@H](Cc1ccccc1)NC(=O)c1cnc2ccccc2n1)C1CCOCC1 (stereo partly drawn) [Quinoxaline-2-carboxylic acid [(1S,2S)-1-benzyl-4-carbamoyl-2-hydroxy-4-(tetrahydro-pyran-4-yl)-butyl]-amide]	4.90
CNC(=O)[C@H](CC(C)C)C[C@H](O)[C@H](CC1CCCCC1)NC(=O)c1cnc2ccccc2c1 [Quinoline-3-carboxylic acid ((1S,2S,7R)-1-cyclohexylmethyl-2-hydroxy-6-methyl-4-methylcarbamoyl-heptyl)-amide]	6.08
O=C(N[C@@H](Cc1ccccc1)[C@@H](O)CC(C(=O)NO)C1CCC(F)(F)CC1)c1cnc2ccccc2n1 (stereo partly drawn) [Quinoxaline-2-carboxylic acid [(1S,2S)-1-benzyl-4-(4,4-difluoro-cyclohexyl)-2-hydroxy-4-hydroxycarbamoyl-butyl]-amide]	8.10
CC(C)(O)CCC(C[C@H](O)[C@H](Cc1ccccc1F)NC(=O)c1cnc2ccccc2n1)C(N)=O (stereo partly drawn) [Quinoxaline-2-carboxylic acid [(1S,2S)-4-carbamoyl-1-(2-fluoro-benzyl)-2,7-dihydroxy-7-methyl-octyl]-amide]	6.17
CC(C)(F)CCC(C[C@H](O)[C@H](Cc1ccccc1)NC(=O)c1cnc2ccccc2n1)C(=O)N1CCCC1 (stereo partly drawn) [Quinoxaline-2-carboxylic acid [(1S,2S)-1-benzyl-7-fluoro-2-hydroxy-7-methyl-4-(pyrrolidine-1-carbonyl)-octyl]-amide]	6.13

Source: BindingDB's records for doi:10.1016/j.bmcl.2004.02.022 (Pfizer, 2004)
